Row | SMILES | melting point
1 | CC(C)(C)C(=O)c1sc(NC(=O)c2ccncc2)nc1-c1ccco1 [Compound 400, N-[4-(2-Furyl)-5-pivaloylthiazol-2-yl]pyridine-4-carboxamide] | 240 to 245 °C
2 | Cc1ncccc1C(=O)c1sc(NC(=O)c2ccncc2)nc1-c1ccco1 [Compound 310, N-[4-(2-Furyl)-5-(2-methylpyridin-3-ylcarbonyl)thiazol-2-yl]pyridine-4-carboxamide] | 230 to 234 °C
3 | CC(=O)Nc1nc(-c2ccco2)c(C(=O)c2ccccn2)s1 [Compound 188, N-[4-(2-Furyl)-5-(pyridin-2-ylcarbonyl)thiazol-2-yl]acetamide] | 216 to 217 °C
4 | COc1ccc(-c2sc(NC(=O)c3ccccc3)nc2-c2ccco2)cc1 [Compound 119, N-[4-(2-Furyl)-5-(4-methoxyphenyl)thiazol-2-yl]benzamide] | 90 to 98 °C
5 | Cc1ccc(C(=O)c2sc(NC(=O)c3ccncc3)nc2-c2ccco2)cn1 [Compound 313, N-[4-(2-Furyl)-5-(2-methylpyridin-5-ylcarbonyl)thiazol-2-yl]pyridine-4-carboxamide] | 230 to 232 °C (dec.)
6 | CN(C)c1cccc(C(=O)Nc2nc(-c3ccco3)c(C(=O)C3CCOCC3)s2)c1 [Compound 464, 3-(Dimethylamino)-N-[4-(2-furyl)-5-(tetrahydropyran-4-ylcarbonyl)thiazol-2-yl]benzamide] | 239 to 243 °C
7 | N#Cc1cccc(C(=O)Nc2nc(-c3ccco3)c(C(=O)c3ccccn3)s2)c1 [Compound 205, 3-Cyano-N-[4-(2-furyl)-5-(pyridin-2-ylcarbonyl)thiazol-2-yl]benzamide] | 234 to 237 °C
8 | O=C(Nc1nc(-c2ccco2)c(C(=O)c2ccc(=O)n(Cc3ccccc3)c2)s1)c1ccncc1 [Compound 364, N-[5-(1-Benzyl-2-oxo-1,2-dihydropyridin-5-ylcarbonyl)-4-(2-furyl)thiazol-2-yl]pyridine-4-carboxamide] | 265 to 282 °C (dec.)
9 | CC1CCN(CC(=O)Nc2nc(-c3ccco3)c(C(=O)c3ccccn3)s2)CC1 [Compound 266, N-[4-(2-Furyl)-5-(pyridin-2-ylcarbonyl)thiazol-2-yl]-2-(4-methylpiperidino)acetamide] | 104 to 106 °C
10 | O=C(Nc1nc(-c2ccco2)c(C(=O)c2ccccn2)s1)c1ccnc(Cl)c1 [Compound 214, 2-Chloro-N-[4-(2-furyl)-5-(pyridin-2-ylcarbonyl)thiazol-2-yl]pyridine-4-carboxamide] | 219 to 225 °C
11 | COc1cccc(C(=O)Nc2nc(-c3ccco3)c(C(=O)C3CCOCC3)s2)c1OC [Compound 483, N-[4-(2-Furyl)-5-(tetrahydropyran-4-ylcarbonyl)thiazol-2-yl]-2,3-dimethoxybenzamide] | 198 to 200 °C
12 | O=C(Nc1nc(-c2occc2-c2ccccc2)c(-c2ccncc2)s1)c1ccncc1 [Compound 603, N-[4-(3-Phenylfuran-2-yl)-5-(4-pyridyl)thiazol-2-yl]pyridine-4-carboxamide] | 190 to 192 °C
13 | Cc1occc1C(=O)Nc1nc(-c2ccco2)c(C(=O)c2ccccn2)s1 [Compound 239, N-[4-(2-Furyl)-5-(pyridin-2-ylcarbonyl)thiazol-2-yl]-2-methylfuran-3-carboxamide] | 183 to 186 °C
14 | Cn1cc(-c2sc(NC(=O)c3ccncc3)nc2-c2ccco2)ccc1=O [Compound 126, N-[4-(2-Furyl)-5-(1-methyl-2-oxo-1,2-dihydropyridin-5-yl)thiazol-2-yl]pyridine-4-carboxamide] | 294 to 295 °C
15 | O=C(Nc1nc(-c2ccco2)c(C(=O)C2CCOCC2)s1)c1cnn(-c2ccccc2)c1 [Compound 521, N-[4-(2-Furyl)-5-(tetrahydropyran-4-ylcarbonyl)thiazol-2-yl]-1-phenylpyrazole-4-carboxamide] | 217 to 220 °C
16 | O=C(c1ccccn1)c1sc(NC(=O)C2CCC2)nc1-c1ccco1 [Compound 193, N-[4-(2-Furyl)-5-(pyridin-2-ylcarbonyl)thiazol-2-yl]cyclobutanecarboxamide] | 165 to 170 °C
17 | O=C(Nc1nc(-c2ccco2)c(C(=O)C2CCOCC2)s1)c1cc(F)cc(F)c1 [Compound 494, 3,5-Difluoro-N-[4-(2-furyl)-5-(tetrahydropyran-4-ylcarbonyl)thiazol-2-yl]benzamide] | 259 to 265 °C
18 | O=C(Nc1nc(-c2ccco2)c(C(=O)C2CCOCC2)s1)c1ccc(CN2CCC(O)CC2)cc1 [Compound 481, N-[4-(2-Furyl)-5-(tetrahydropyran-4-ylcarbonyl)thiazol-2-yl]-4-(4-hydroxypiperidinomethyl)benzamide] | 194 to 195 °C
19 | Cc1cncc(C(=O)Nc2nc(-c3ccco3)c(C(=O)C3CCOCC3)s2)c1 [Compound 506, N-[4-(2-Furyl)-5-(tetrahydropyran-4-ylcarbonyl)thiazol-2-yl]-5-methylpyridine-3-carboxamide] | 239 to 243 °C
20 | CC(C)(O)c1cc2cc(C(=O)Nc3nc(-c4ccco4)c(C(=O)c4ccccn4)s3)ccc2o1 [Compound 247, N-[4-(2-Furyl)-5-(pyridin-2-ylcarbonyl)thiazol-2-yl]-2-(1-hydroxy-1-methylethyl)-1-benzofuran-5-carboxamide] | 230 to 231 °C

Row | SMILES | melting point
21 | COc1ccc(C(=O)Nc2nc(-c3ccco3)c(C(=O)c3ccccn3)s2)c(OC)n1 [Compound 224, N-[4-(2-Furyl)-5-(pyridin-2-ylcarbonyl)thiazol-2-yl]-2,6-dimethoxypyridine-3-carboxamide] | 201 to 202 °C
22 | O=C(Nc1nc(-c2ccco2)c(C(=O)c2ccccc2)s1)c1ccnc(N2CCCCC2)c1 [Compound 146, N-[5-Benzoyl-4-(2-furyl)thiazol-2-yl]-2-piperidinopyridine-4-carboxamide] | 195 to 198 °C
23 | O=C(Nc1nc(-c2ccco2)c(C(=O)c2ccccc2)s1)c1ccnc(CN2CCOCC2)c1 [Compound 144, N-[5-Benzoyl-4-(2-furyl)thiazol-2-yl]-2-(morpholinomethyl)pyridine-4-carboxamide] | 212 to 213 °C
24 | CCCC(=O)c1sc(NC(=O)c2ccncc2)nc1-c1ccco1 [Compound 382, N-[5-Butyryl-4-(2-furyl)thiazol-2-yl]pyridine-4-carboxamide] | 191 to 194 °C
25 | O=C(Nc1nc(-c2ccoc2)c(C(=O)C2CCOCC2)s1)c1ccc(F)cc1 [Compound 620, 4-Fluoro-N-[4-(3-furyl)-5-(tetrahydropyran-4-ylcarbonyl)thiazol-2-yl]benzamide] | 231 to 232 °C
26 | COc1ccc(C(=O)Nc2nc(-c3ccco3)c(C(=O)c3ccccn3)s2)cc1 [Compound 202, N-[4-(2-Furyl)-5-(pyridin-2-ylcarbonyl)thiazol-2-yl]-4-methoxybenzamide] | 187 to 188 °C
27 | COc1cccc(C(=O)Nc2nc(-c3ccco3)c(C(=O)C3CCC(=O)CC3)s2)c1 [Compound 451, N-[4-(2-Furyl)-5-(4-oxocyclohexylcarbonyl)thiazol-2-yl]-3-methoxybenzamide] | 176 to 183 °C
28 | Cn1ccc(C(=O)Nc2nc(-c3ccco3)c(C(=O)c3ccccn3)s2)cc1=O [Compound 233, N-[4-(2-Furyl)-5-(pyridin-2-ylcarbonyl)thiazol-2-yl]-1-methyl-2-oxo-1,2-dihydropyridine-4-carboxamide] | 280 to 285 °C
29 | Cn1nnc2ccc(C(=O)Nc3nc(-c4ccco4)c(C(=O)c4ccccn4)s3)cc21 [Compound 245, N-[4-(2-Furyl)-5-(pyridin-2-ylcarbonyl)thiazol-2-yl]-1-methyl-1H-benzotriazole-6-carboxamide] | 230 to 231 °C
30 | O=C(Nc1nc(-c2ccco2)c(-c2ccncc2)s1)c1ccc(F)cc1 [Compound 102, 4-Fluoro-N-[4-(2-furyl)-5-(4-pyridyl)thiazol-2-yl]benzamide] | 270 to 300 °C (dec.)
31 | O=C(Nc1nc(-c2ccco2)c(C(=O)C2CCOCC2)s1)c1ccccc1 [Compound 457, N-[4-(2-Furyl)-5-(tetrahydropyran-4-ylcarbonyl)thiazol-2-yl]benzamide] | 221 to 222 °C
32 | N#Cc1ccccc1C(=O)Nc1nc(-c2ccco2)c(C(=O)C2CCOCC2)s1 [Compound 472, 2-Cyano-N-[4-(2-furyl)-5-(tetrahydropyran-4-ylcarbonyl)thiazol-2-yl]benzamide] | 221 to 224 °C
33 | Cc1cc(C(=O)Nc2nc(-c3ccco3)c(C(=O)c3ccccn3)s2)c(C)o1 [Compound 240, N-[4-(2-Furyl)-5-(pyridin-2-ylcarbonyl)thiazol-2-yl]-2,5-dimethylfuran-3-carboxamide] | 195 to 198 °C
34 | N#Cc1ccc(C(=O)Nc2nc(-c3ccco3)c(C(=O)C3CCC3)s2)cc1 [Compound 426, 4-Cyano-N-[5-(cyclobutylcarbonyl)-4-(2-furyl)thiazol-2-yl]benzamide] | 220 to 225 °C
35 | O=C(Nc1nc(-c2ccco2)c(C(=O)C2CCOCC2)s1)c1cccc2c1OC(F)(F)O2 [Compound 497, 2,2-Difluoro-N-[4-(2-furyl)-5-(tetrahydropyran-4-ylcarbonyl)thiazol-2-yl]-1,3-benzodioxole-4-carboxamide] | 206 to 207 °C
36 | CN(C)c1ccc(C(=O)Nc2nc(-c3ccco3)c(C(=O)C3CCOCC3)s2)cc1 [Compound 465, 4-(Dimethylamino)-N-[4-(2-furyl)-5-(tetrahydropyran-4-ylcarbonyl)thiazol-2-yl]benzamide] | 238 to 240 °C
37 | O=C(Nc1nc(-c2ccco2)c(C(=O)c2ccccn2)s1)c1cc[nH]c(=O)c1 [Compound 231, N-[4-(2-Furyl)-5-(pyridin-2-ylcarbonyl)thiazol-2-yl]-2-oxo-1,2-dihydropyridine-4-carboxamide] | 170 to 180 °C (dec.)
38 | Cc1ccc(C(=O)Nc2nc(-c3ccoc3)c(C(=O)C3CCOCC3)s2)cn1 [Compound 614, N-[4-(3-Furyl)-5-(tetrahydropyran-4-ylcarbonyl)thiazol-2-yl]-2-methylpyridine-5-carboxamide] | 217 to 219 °C
39 | O=C(Nc1nc(-c2ccco2)c(C(=O)C2CCOCC2)s1)c1cccc2c1OCCO2 [Compound 495, N-[4-(2-Furyl)-5-(tetrahydropyran-4-ylcarbonyl)thiazol-2-yl]-1,4-benzodioxane-5-carboxamide] | 188 to 190 °C
